# Literature values in US20200199640A1, “PROCESS FOR OBTAINING […] A HOST CELL COMPRISING POLYNUCLEOTIDES ENCODING FOR PO[…] IN THE OMPHALOTIN BIOSYNTHESIS” (TECHNISCHE UNIVERSITÄT BERLIN, priority 2017, published 2020).
# Non-standard residues stand in square brackets, D forms with d. Residues, ends and D or L forms follow the SMILES beside them. ξ: configuration not given here. NMeIle(3ξ) = CCC(C)[C@H](NC)C(=O)O; Ile(3ξ) = CCC(C)[C@H](N)C(=O)O; NMeV = CN[C@H](C(=O)O)C(C)C; Sar = CNCC(=O)O
# Experiments:
# [1] = literature statement (A. Mayer et al, Pestic. Sci. 1999, 55, 27-30)
# [2] = literature statement (A. Mayer et al, Pestic. Sci. 1999, 55, 27-30); remark: listed apart in the source
# Meloidogyne incognita = details: literature statement (A. Mayer et al, Pestic. Sci. 1999, 55, 27-30)
# [3] = literature statement (A. Mayer et al, Pestic. Sci. 1999, 55, 27-30); remark: listed apart in the source
smiles,measurement,setting,value
CCC(C)[C@@H]1NC(=O)[C@H](C(C)C)N(C)C(=O)[C@H](Cc2c[nH]c3ccccc23)NC(=O)CN(C)C(=O)[C@H](C(C)CC)N(C)C(=O)[C@H](C(C)C)NC(=O)CN(C)C(=O)[C@H](C(C)CC)N(C)C(=O)[C@H](C(C)C)N(C)C(=O)CN(C)C(=O)[C@H](C(C)C)N(C)C(=O)[C@H](C(C)C)N(C)C1=O (stereo partly shown) [Omphalotin A] (cyclo([Ile(3ξ)][NMeV][NMeV][Sar][NMeV][NMeIle(3ξ)][Sar]V[NMeIle(3ξ)][Sar]W[NMeV])),phytotoxic activity,[1],"no further phytotoxic, antibacterial or antifungal activities"
same,antibacterial activity,[2],"no further phytotoxic, antibacterial or antifungal activities"
same,activity against the plant pathogen nematode Meloidogyne incognita,Meloidogyne incognita,strong and selective activity
same,antifungal activity,[3],"no further phytotoxic, antibacterial or antifungal activities"
